Data: paper PMC4994278, “Characterization of a glucose-tolerant β-glucosidase from Anoxybacillus sp. DT3-1” (Biotechnology for Biofuels, 2016)

Target: T1, DT-Bgl (Anoxybacillus gonensis, UniProt M5QUM2)
T1 construct: full-length ORF, 453 residues (no signal peptide), pET-28a BamHI/XhoI, Ni-NTA purified (His tag, removal not mentioned), E. coli BL21(DE3), 53 kDa on SDS-PAGE
Assay: HPLC of cellobiose hydrolysis with added glucose
Format: biochemical
Details: 400000 µM; substrate cellobiose (1% w/v in substrate assay), 100 mM glycine-NaOH pH 8.5, 60 °C; product inhibition

OC[C@H]1OC(O)[C@H](O)[C@@H](O)[C@@H]1O (stereo partly shown) [glucose]
% relative activity in 0.4 M glucose: 54%
